Measured values: the supplement of paper PMC10307832

What was measured:
Assay in all cases: relative viability (nuclei count vs DMSO), 5 days (fraction); higher = more cells survive
RO-3306 + Foretinib = compound: C1=CC2=C(C=CC(=C2)C=C3C(=O)NC(=NCC4=CC=CS4)S3)N=C1 [RO-3306] + COc1cc2c(Oc3ccc(NC(=O)C4(C(=O)Nc5ccc(F)cc5)CC4)cc3F)ccnc2cc1OCCCN1CCOCC1 [Foretinib] (partner 0.25 µM)
Method in brief: (§1)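 Lung cancer cell lines in 1536-well plates got either a single drug or a fixed anchor-drug dose together with five library-drug doses (not always all listed) in √10 steps, by pin tool, on the day after seeding. Nuclei were counted after 5 days, and relative viability is the treated-to-vehicle ratio of nuclei counts. Values are medians of duplicate plates.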

RO-3306 + Olaparib = compound: C1=CC2=C(C=CC(=C2)C=C3C(=O)NC(=NCC4=CC=CS4)S3)N=C1 [RO-3306] + O=C(c1cc(Cc2n[nH]c(=O)c3ccccc23)ccc1F)N1CCN(C(=O)C2CC2)CC1 [Olaparib] (partner 8 µM)
Method in brief: as §1

[1] = compound: O=S(=O)(c1ccccc1)N(CC(F)(F)F)c1ccc(C(O)(C(F)(F)F)C(F)(F)F)cc1 + Cc1cc(Nc2cc(N3CCN(C)CC3)nc(Sc3ccc(NC(=O)C4CC4)cc3)n2)n[nH]1 [Tozasertib] (partner 0.1 µM)
Method in brief: as §1

[2] = compound: O=S(=O)(c1ccccc1)N(CC(F)(F)F)c1ccc(C(O)(C(F)(F)F)C(F)(F)F)cc1 + Cc1nc(NC(=O)N2CCC[C@H]2C(N)=O)sc1-c1ccnc(C(C)(C)C(F)(F)F)c1 [Alpelisib] (partner 2 µM)
Method in brief: as §1

[3] = compound: O=S(=O)(c1ccccc1)N(CC(F)(F)F)c1ccc(C(O)(C(F)(F)F)C(F)(F)F)cc1 + O=C(c1cc(Cc2n[nH]c(=O)c3ccccc23)ccc1F)N1CCN(C(=O)C2CC2)CC1 [Olaparib] (partner 8 µM)
Method in brief: as §1

| Cell Line | relative viability (RO-3306 + Foretinib; first compound 0.01 µM) | relative viability (RO-3306 + Foretinib; first compound 0.03162 µM) | relative viability (RO-3306 + Foretinib; first compound 0.1 µM) | relative viability (RO-3306 + Foretinib; first compound 0.3162 µM) | relative viability (RO-3306 + Foretinib; first compound 1 µM) | relative viability (RO-3306 + Olaparib; first compound 0.01 µM) | relative viability (RO-3306 + Olaparib; first compound 0.03162 µM) | relative viability (RO-3306 + Olaparib; first compound 0.1 µM) | relative viability (RO-3306 + Olaparib; first compound 0.3162 µM) | relative viability (RO-3306 + Olaparib; first compound 1 µM) | relative viability ([1]; first compound 0.8 µM) | relative viability ([1]; first compound 2.53 µM) | relative viability ([1]; first compound 8 µM) | relative viability ([2]; first compound 0.8 µM) | relative viability ([2]; first compound 2.53 µM) | relative viability ([2]; first compound 8 µM) | relative viability ([3]; first compound 0.8 µM) | relative viability ([3]; first compound 2.53 µM) | relative viability ([3]; first compound 8 µM) |
| --- | --- | --- | --- | --- | --- | --- | --- | --- | --- | --- | --- | --- | --- | --- | --- | --- | --- | --- | --- |
| NCI-H520 | 0.843 | 0.663 | 0.854 | 0.694 | 0.839 | 0.359 | 0.244 | 0.315 | 0.344 | 0.351 | 0.435 | 0.463 | 0.476 | 1 | 0.915 | 1.28 | 0.333 | 0.346 | 0.32 |
| NCI-H1793 | 0.654 | 0.265 | 0.627 | 0.748 | 0.735 | 0.686 |  | 0.789 | 0.893 | 0.954 | 0.31 | 0.249 | 0.269 | 0.585 | 0.491 | 0.578 | 0.791 | 0.574 | 0.692 |
| SK-LU-1 | 0.853 | 0.783 | 0.831 | 0.778 | 0.712 | 0.425 | 0.415 | 0.458 | 0.663 | 0.425 | 0.285 | 0.328 | 0.301 | 1.16 | 1.23 | 0.903 | 0.446 | 0.472 | 0.433 |
| NCI-H441 | 0.911 | 0.937 | 0.944 | 1.07 | 0.937 | 0.641 | 0.461 | 0.592 | 0.581 | 0.443 | 0.58 | 0.588 | 0.697 | 0.815 | 0.481 | 0.64 | 0.657 | 0.469 | 0.654 |
| EPLC-272H | 0.723 | 0.541 | 0.598 | 0.683 | 0.533 | 0.752 | 0.461 | 1.22 | 0.647 | 0.291 | 0.366 | 0.379 | 0.312 | 0.818 | 1.04 | 0.681 | 0.888 | 0.859 | 0.645 |
| HCC-366 | 0.91 | 0.96 | 0.942 | 0.884 | 0.931 | 0.384 | 0.281 | 0.366 | 0.383 | 0.393 | 0.133 | 0.0684 | 0.0773 | 0.469 | 0.436 | 0.428 | 0.414 | 0.37 | 0.281 |
| PC-14 | 0.968 | 0.739 | 0.935 | 1.04 | 0.917 | 0.298 | 0.232 | 0.235 | 0.227 | 0.237 | 0.559 | 0.445 | 0.34 | 0.829 | 0.697 | 0.525 | 0.201 | 0.198 | 0.204 |
| LU99A | 0.869 | 0.798 | 0.844 | 0.835 | 0.733 | 0.275 | 0.233 | 0.233 | 0.25 | 0.2 | 0.235 | 0.238 | 0.253 | 0.606 | 0.498 | 0.472 | 0.253 | 0.248 | 0.392 |
| NCI-H2087 | 0.985 | 1.01 | 1.13 | 1.24 | 0.982 | 0.626 | 0.476 | 0.671 | 0.723 | 0.656 | 0.255 | 0.258 | 0.188 | 1.16 | 1.11 | 0.972 | 0.643 | 0.609 | 0.637 |
| BEN | 0.513 | 0.684 | 0.664 | 0.673 | 0.747 | 1.09 | 0.893 | 1.01 | 1.16 | 1.02 | 0.615 | 0.549 | 0.508 | 1.13 | 0.953 | 0.902 | 0.889 | 0.875 | 0.876 |
| NCI-H2405 | 1.05 | 1.06 | 1.03 | 1.03 | 0.961 | 0.844 | 0.863 | 0.887 | 0.899 | 0.732 | 0.889 | 0.749 | 0.711 | 0.877 | 0.795 | 0.868 | 0.846 | 0.819 | 0.777 |
